Marks after values point to notes of the source that are not given here.
Experiments:
[1] = pH 7.4
[2] = physchem; details: buffer, pH 7.4
[3] = pH 7.4; remark: listed apart in the source
[4] = reported in WO 2013/059194; cited from earlier work
[5] = UV-vis method for pKa determination of compound 4 (Example 20); format: physicochemical; details: 0.10 M phosphate buffer, 25° C., read-out: pKa (ring nitrogen proton)
Experimental: A 1 mM solution of compound 4 is prepared in acetonitrile. To a cuvette containing 3.0 mL of 0.10 M phosphate buffer of the desired pH at 25° C. is added 50 μL of the compound 4 solution. The solution is mixed quickly by rapidly drawing up and dispensing the solution with a pipette. Absorbance spectra are collected immediately after the solution has mixed and settled.

[6] = physchem; details: buffer, pH 7.4; remark: listed apart in the source

Row | SMILES | k (rate of appearance of BA byproduct, single exponential fit) [1] | half-life [2] | HNO yield [3] | k (rate of disappearance of compound and appearance of BA byproduct, single exponential fit) [3] | also measured
1 | O=C1NC(=O)C(Cc2cccs2)(NO)C(=O)N1 [Compound 16, 5-(N-hydroxylamino)-5-(2-thienylmethyl)-barbituric acid] | 0.00029 s⁻¹ | 0.667 h | – | – | –
2 | CN1C(=O)N(C)C(=O)C(Cc2ccc(Cl)cc2)(NO)C1=O [Compound 3, 5-(N-hydroxylamino)-5-(4-chlorobenzyl)-N,N-dimethylbarbituric acid] | 0.00025 s⁻¹ | – | 92^d | 0.0006 s⁻¹ | melting point: 155 to 157 °C
3 | C=CCC1(NO)C(=O)NC(=O)NC1=O [Compound 9, 5-(N-hydroxylamino)-5-(2-propen-1-yl)-barbituric acid] | 0.00013 s⁻¹ | 1.5 h | – | – | –
4 | CCC1(NO)C(=O)N(C)C(=O)N(C)C1=O [5-ethyl HABA, 5-(N-hydroxylamine)-5-ethyl-N,N-dimethylbarbituric acid] | – | – | – | – | HNO production [4]: less than the desired amount of HNO
5 | CCC1(NO)C(=O)NC(=O)NC1=O [Compound 4, 5-(N-hydroxylamino)-5-ethyl-barbituric acid] | 3.7e-05 s⁻¹ | – | 97^d | 0.00011 s⁻¹ | pKa [5]: ~7.4; melting point: > 300 °C
6 | CCC(C)C1(NO)C(=O)NC(=O)NC1=O (stereo not drawn) [Compound 18, 5-(N-hydroxylamino)-5-(1-methylpropyl)-barbituric acid] | – | – | 102 | 5.9e-06 s⁻¹ | half-life [6]: 32.9 h
7 | CC1(NO)C(=O)NC(=O)NC1=O [Compound 17, 5-(N-hydroxylamino)-5-methyl-barbituric acid] | 0.00025 s⁻¹ | 0.767 h | – | – | –
8 | O=C1NC(=O)C(Cc2ccccc2)(NO)C(=O)N1 [Compound 5, 5-(N-hydroxylamino)-5-benzyl-barbituric acid] | 0.00013 s⁻¹ | 1.53 h | – | – | –
9 | O=C1NC(=O)C(Cc2ccccc2Cl)(NO)C(=O)N1 [Compound 14, 5-(N-hydroxylamino)-5-(2-chlorobenzyl)-barbituric acid] | 0.00029 s⁻¹ | 0.683 h | – | – | –
10 | COc1ccc(CC2(NO)C(=O)NC(=O)NC2=O)cc1 [Compound 6, 5-(N-hydroxylamino)-5-(4-methoxybenzyl)-barbituric acid] | 8.8e-05 s⁻¹ | 2.2 h | – | – | –
11 | CCCC(C)C1(NO)C(=O)NC(=O)NC1=O (stereo not drawn) [Compound 12, 5-(N-hydroxylamino)-5-(1-methylbutyl)-barbituric acid] | – | – | 102 | 5e-06 s⁻¹ | half-life [6]: 38.5 h
12 | CC(C)CC1(NO)C(=O)NC(=O)NC1=O [Compound 10, 5-(N-hydroxylamino)-5-(2-methylpropyl)-barbituric acid] | 0.0005 s⁻¹ | 0.383 h | – | – | –
13 | O=C1NC(=O)C(Cc2ccc(Cl)cc2)(NO)C(=O)N1 [Compound 7, 5-(N-hydroxylamino)-5-(4-chlorobenzyl)-barbituric acid] | 0.00016 s⁻¹ | 1.18 h | – | – | –
14 | O=C1NC(=O)C(NO)(c2ccccc2)C(=O)N1 [Compound 8, 5-(N-hydroxylamino)-5-phenyl-barbituric acid] | 0.00082 s⁻¹ | 0.233 h | – | – | –
15 | COc1ccc(CC2(NO)C(=O)N(C)C(=O)N(C)C2=O)cc1 [Compound 2, 5-(N-hydroxylamino)-5-(4-methoxybenzyl)-N,N-dimethylbarbituric acid] | 8e-05 s⁻¹ | – | 96^d | 0.00015 s⁻¹ | melting point: 108 to 110 °C
16 | CN1C(=O)N(C)C(=O)C(Cc2ccccc2)(NO)C1=O [Compound 1, 5-(N-hydroxylamino)-5-benzyl-N,N-dimethylbarbituric acid] | 0.00015 s⁻¹ | – | 99^d | 0.00031 s⁻¹ | melting point: 155 to 157 °C
17 | CC(C)C1(NO)C(=O)NC(=O)NC1=O [Compound 11, 5-(N-hydroxylamino)-5-(1-methylethyl)-barbituric acid] | – | – | 98 | 3.1e-06 s⁻¹ | half-life [6]: 62.4 h

— patent US9464061B2, “N-hydroxylamino-barbituric acid derivatives” (priority 2014, dated 2016)
